One assay concerns the target CDK1 (Homo sapiens, UniProt P06493). Put plainly: CDK1 kinase inhibitory activity assay and selectivity over CDK12. In kind it is biochemical. As to conditions: for pIC50: kinase reaction 120 minutes, 33P-gamma-ATP. In a few lines: (§1)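 Radiometric ^33P-gamma-ATP filter-binding assay: compound (9 concentrations, DMSO) preincubated 20 min with CDK1 or CDK2 plus substrate, then kinase reaction 120 min at room temperature. Phosphorylated substrate counted after phosphoric acid washes; activity relative to DMSO control, IC50 calculated.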

A further assay has as its target CDK2 (Homo sapiens, UniProt P24941). Put plainly: CDK2 kinase inhibitory activity assay and selectivity over CDK12. In kind it is biochemical. As to conditions: for pIC50: kinase reaction 120 minutes, 33P-gamma-ATP; for CDK2/CDK12: ratio of CDK2 IC50 to CDK12 IC50. In a few lines:
as §1

The test system of another assay is MKN45 cells. Put plainly: Gastric cancer cell proliferation inhibitory activity (CellTiter Glo), MKN45. In kind it is cell-based. As to conditions: Homo sapiens, MKN-45, 72 hours, relative IC50. Here is the method:
(§2) Experiments were performed using four types of gastric cancer cell lines (AGS, SNU-1, KATO-III, and MKN45) to measure the cell proliferation inhibitory ability of each Example compound. For AGS cells, 90 µL of cell suspension was dispensed into a 96-well plate using F-12K (Gibco) medium containing 10 % FBS, followed by incubation in a cell incubator at 37 °C and 5 % CO2. For SNU-1 and MKN45 cells, 90 µL of cell suspension was dispensed into a 96-well plate using RPMI1640 (Gibco) medium containing 10 % FBS, followed by incubation in a cell incubator at 37 °C and 5 % CO2. For KATO-III cells, 90 uL of cell suspension was dispensed into a 96-well plate using IMDM (Gibco) medium containing 10 % FBS, followed by incubation in a cell incubator at 37 °C and 5 % CO2. The next day, each Example compound dissolved and diluted in DMSO across 9 concentration ranges and a DMSO control group were added at 10 µL to each 96-well plate and treated for 72 hours. After completion of the compound treatment, 100 µL of CellTiter Glo (Promega) reagent was added to each well of the 96-well plate, followed by shaking for 10 minutes and standing at room temperature for 10 minutes. Luminescence signals were measured after inserting the 96-well plate into an Envision plate reader (PerkinElmer). Relative IC50 values were calculated by fitting a dose-response curve using XLfit (IDBS Ltd) software.
(§3) The gastric cancer cell proliferation inhibitory activities of the Example compounds measured by the method described above were evaluated according to the following criteria, and the results are presented in Table 16.
Background: In ATP-based viability assays light output follows the ATP content of the culture.

The next assay has as its system SNU-1. Put plainly: Gastric cancer cell proliferation inhibitory activity (CellTiter Glo), SNU-1. To be noted: Homo sapiens, SNU1, 72 hours, relative IC50. In kind it is cell-based. Here is the method: as §2, §3
The subject of a further assay is HCC70 cells. Put plainly: Breast cancer cell proliferation inhibitory activity, HCC70. It counts as cell-based. As to conditions: Homo sapiens, 72 hours, CellTiter Glo, relative IC50. Here is the method:
(§4) Experiments were conducted using three types of breast cancer cell lines to measure the cell proliferation inhibitory ability of each Example compound. For HCC70 cells, 100 µL of cell suspension was dispensed into a 96-well plate using RPMI1640 (Invitrogen) medium containing 10 % FBS, followed by incubation in a cell incubator at 37 °C and 5 % CO2. For BT-20 cells, 100 µL of cell suspension was dispensed into a 96-well plate using EMEM (Invitrogen) medium containing 10 % FBS, followed by incubation in a cell incubator at 37 °C and 5 % CO2. For MDA-MB-436 cells, 100 µL of cell suspension was dispensed into a 96-well plate using L-15 (Invitrogen) medium containing 10 % FBS, followed by incubation in a cell incubator at 37 °C and 0 % CO2. The next day, each Example compound dissolved and diluted in DMSO across 9 concentration ranges and a DMSO control group were treated on the cells for 72 hours. After completion of the compound treatment, 100 µL of CellTiter Glo (Promega) reagent was added to each well of the 96-wellplate, followed by shaking for 10 minutes and standing at room temperature for 10 minutes. After inserting the 96-well plate into an Envision plate reader (PerkinElmer), luminescence signals were measured. Relative IC50 values were calculated by fitting a dose-response curve using XL fit (IDBS Ltd) software.
(§5) The breast cancer cell proliferation inhibitory activities of the Example compounds measured by the method described above were evaluated according to the following criteria, and the results are presented in Table 15.

Another assay deals with KATO-III cells. Description: Gastric cancer cell proliferation inhibitory activity (CellTiter Glo), KATO-III. In kind it is cell-based. To be noted: Homo sapiens, KATO III, 72 hours, relative IC50. The method, then:
as §2, §3

For the next assay, the system named is BT-20 cells. Description: Breast cancer cell proliferation inhibitory activity, BT-20. It counts as cell-based. To be noted: Homo sapiens, 72 hours, CellTiter Glo, relative IC50. The method, then:
as §4, §5

In a further assay the test system is AGS cells. Description: Gastric cancer cell proliferation inhibitory activity (CellTiter Glo), AGS. It counts as cell-based. As to conditions: Homo sapiens, AGS, 72 hours, relative IC50. Here is the method:
as §2, §3

pIC50: −log10 of the molar value.

Chain of CDK1 (P06493 whole entry, species assumed): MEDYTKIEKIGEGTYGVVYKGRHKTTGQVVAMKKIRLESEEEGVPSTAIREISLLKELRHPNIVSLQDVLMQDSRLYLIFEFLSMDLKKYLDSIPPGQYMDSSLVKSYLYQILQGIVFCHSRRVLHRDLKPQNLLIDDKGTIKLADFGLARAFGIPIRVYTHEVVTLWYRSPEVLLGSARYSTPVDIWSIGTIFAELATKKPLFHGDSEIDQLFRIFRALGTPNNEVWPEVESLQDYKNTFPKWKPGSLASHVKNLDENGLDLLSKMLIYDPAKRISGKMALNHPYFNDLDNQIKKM
Chain of CDK1 (P14635 whole entry partner, species assumed): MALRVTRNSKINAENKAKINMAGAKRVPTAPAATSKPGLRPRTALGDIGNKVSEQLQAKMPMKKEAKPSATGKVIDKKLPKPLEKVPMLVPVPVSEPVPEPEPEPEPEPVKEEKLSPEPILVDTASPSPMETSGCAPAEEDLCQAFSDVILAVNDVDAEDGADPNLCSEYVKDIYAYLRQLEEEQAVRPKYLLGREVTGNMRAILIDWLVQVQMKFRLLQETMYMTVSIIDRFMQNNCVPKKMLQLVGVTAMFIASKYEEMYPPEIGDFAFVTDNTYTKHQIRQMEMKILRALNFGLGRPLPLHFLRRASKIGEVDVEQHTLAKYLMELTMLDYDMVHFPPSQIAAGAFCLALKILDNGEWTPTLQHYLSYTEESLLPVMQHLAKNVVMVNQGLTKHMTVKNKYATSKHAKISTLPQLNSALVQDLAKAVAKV

In general, pIC50 refers to the IC50 on a negative log10 scale, so that one unit is a factor of ten. High values mean a small IC50, low ones a large IC50. Regarding `Nc1ncc(-c2cc(NCc3nc4cc(Cl)c(Cl)cc4[nH]3)c3ncc(C(F)(F)F)n3n2)cn1` [Example 40], the negative-log IC50 (pIC50) on CDK1 and against CDK2 was less than 6.00 each time.

For `N#CC1CN(c2cc(NCc3nc4cc(Cl)c(Cl)cc4[nH]3)c3ncc(C(F)(F)F)n3n2)C1` [Example 30, 1-(8-(((5,6-dichloro-1H-benzol[d]imidazol-2-yl)methyl)amino)-3-(trifluoromethyl)imidazo[1,2-b]pyridazin-6-yl)azetidine-3-carbonitrile], the pIC50 at CDK1 was less than 6.00; against CDK2, less than 6.00; in the assay on MKN45 cells it was no less than 6.70; in the assay with SNU-1, no less than 6.70; in the assay on HCC70 cells, no less than 7.30; in the assay on KATO-III cells, no less than 6.70. In addition, the pIC50 with BT-20 cells is no less than 7.30; in the assay on AGS cells, no less than 6.70. Besides, on CDK2, the CDK2/CDK12 result was “C (CDK1/CDK12 or CDK2/CDK12 ≤ 100-fold)”.

Turning to `CN1CCN(c2cc(NCc3nc4ccc(F)c(F)c4[nH]3)c3ncc(C(F)(F)F)n3n2)CC1` [Example 8, N-((6,7-difluoro-1H-benzo[d]imidazol-2-yl)methyl)-6-(4-methylpiperazin-1-yl)-3-(trifluoromethyl)imidazo[1,2-b]pyridazin-8-amine], the pIC50 was less than 6.00 at CDK1; less than 6.00 against CDK2; no less than 6.70 with MKN45 cells; no less than 6.70 with SNU-1; no less than 7.30 in the assay on HCC70 cells; no less than 6.70 in the assay on KATO-III cells. Also, the pIC50 in the assay on BT-20 cells is no less than 7.30; with AGS cells, no less than 6.70. In addition, the CDK1/CDK12 result at CDK1 (ratio of CDK1 IC50 to CDK12 IC50) is “A (CDK1/CDK12 or CDK2/CDK12 > 500-fold)”. Also, the CDK2/CDK12 entry at CDK2 is recorded as “B (100-fold < CDK1/CDK12 or CDK2/CDK12 ≤ 500-fold)”.

In the case of `CN1CCN(c2cc(NCc3nc4cc(Cl)c(Cl)cc4[nH]3)c3ncc(C(F)(F)F)n3n2)CC1` [Example 29, N-((5,6-dichloro-1H-benzo[d]imidazol-2-yl)methyl)-6-(4-methylpiperazin-1-yl)-3-(trifluoromethyl)imidazo[1,2-b]pyridazin-8-amine], the pIC50 against CDK1 was less than 6.00; against CDK2, less than 6.00; in the assay with MKN45 cells it was no less than 6.70; in the assay with SNU-1, no less than 6.70; with HCC70 cells, no less than 7.30; with KATO-III cells it was no less than 6.70. Also, the pIC50 was no less than 7.30 in the assay on BT-20 cells and no less than 6.70 in the assay with AGS cells.

These data come from patent publication EP4813991A1 (iLeadBMS Co., Ltd., priority 2023, dated 2025).
